Test results reported in PMC12402003 (Frontiers in Nutrition, 2025).

What was measured:
Caco-2 cell monolayers = experiment: Bidirectional transport across Caco-2 cell monolayer; type: in vitro ADME, human; settings: 50 μmol/L, no inhibitor
Description: The cells were seeded at a density of approximately 10^5 cells/cm^2 on TranswellTM filter (Corning Inc., Lowell, MA) and cultured for 21 d before use. Cell monolayer integrity was controlled by the measurement of trans-epithelial electrical resistance (TEER) with an EVOM epithelial voltammeter equipped with an electrode (World Precision Instruments, Sarasota, FL, United States). […] (a) R(%)=CBL×VBL/CAP×VAP×100 In this, R represents the absorption rate (as a percentage); CBL is the anthocyanin concentration of the BL side (in μM); VBL is the volume of anthocyanins from the BL (in L); CAP is the initial anthocyanin concentration of the AP side (in μM), and VAP is the volume of anthocyanins in the AP chamber (in L). The absorption rate of anthocyanins from BL to AP is calculated using the following Equation b: (b) R(%)=CAP×VAP/CBL×VBL×100 In this, R represents the absorption rate (as a percentage); CAP is the anthocyanin concentration from the AP side (in μM); VAP is the volume of anthocyanins in the AP chamber (in mL); CBL is the initial concentration from the BL side (in μM) and VBL is the volume of anthocyanins in the BL chamber (in L).

Fasn = experiment: Western blot of Fasn protein in Caco-2/HepG2 co-culture; type: cell-based, human; settings: 1 mM OA vs. control, p < 0.01
Description: Cells from the co-culture model were lysed and supernatants were collected. The protein concentrations were determined using the BCA Protein Quantitation Kit. Then electrophoresis of samples was conducted using a SDS-PAGE kit (Beyotime Biotechnology) following the manufacturer’s instructions and transferred to poly-vinylidene difluoride (PVDF) membrane. Next, membranes were incubated in 5% nonfat milk to block non-specific antibody binding for 30 min at room temperature and followed by incubating with primary antibodies and secondary antibodies. Chemiluminescence based-images of the blots were acquired using ImageQuant LAS 500 system (GE, United States). Protein bands were quantified using ImageJ (version 1.53a) software. The changes in expression levels of these proteins detected finally are used to evaluate the sample’s effect on lipid metabolism.

HepG2 cells = experiment: TG and TC content in OA-induced high-fat HepG2 cells; type: cell-based, human; settings: 1 mM OA high-fat model vs control group
Description: For high fat HepG2 model: […] Afterwards, cells were harvested and lysed. […] For TG and TC assay: […] The medium was removed and the cells were washed twice with PBS. The levels of triglycerides (TG) and total cholesterol (TC) in the cells were determined according to the instructions of test kits.

Row | SMILES | ER (efflux rate) (Caco-2 cell monolayers; 30 min) | Papp (AP → BL) (Caco-2 cell monolayers; 30 min) | ER (efflux rate) (Caco-2 cell monolayers; 60 min) | Papp (AP → BL) (Caco-2 cell monolayers; 60 min) | ER (efflux rate) (Caco-2 cell monolayers; 90 min) | Papp (AP → BL) (Caco-2 cell monolayers; 90 min) | ER (efflux rate) (Caco-2 cell monolayers; 120 min) | Papp (AP → BL) (Caco-2 cell monolayers; 120 min) | ER (efflux rate) (Caco-2 cell monolayers; 150 min) | Papp (AP → BL) (Caco-2 cell monolayers; 150 min) | Fasn protein expression level (Fasn) [fold] | increase of TC level (HepG2 cells) [%] | increase of TG level (HepG2 cells) [%]
1 | O=C1OC2(c3ccc(O)cc3Oc3cc(O)ccc32)c2ccccc21 [Fluorescin, Fluorescein, reference compound] | 0.56 | 5.75 ± 0.17 ×10^−5 cm /s | 0.34 | 5.07 ± 1.72 ×10^−5 cm /s | 0.3 | 4.59 ± 2.21 ×10^−5 cm /s | 0.27 | 4.6 ± 2.63 ×10^−5 cm /s | 0.25 | 4.65 ± 2.94 ×10^−5 cm /s | – | – | –
2 | CCCCCCCC/C=C\CCCCCCCC(=O)O [OA, Oleic acid] | – | – | – | – | – | – | – | – | – | – | 1.59 ± 0.16 | 12 | 22
